From patent publication US20240025924A1, “HETEROCYCLE SUBSTITUTED KETONE DERIVATIVE, AND COMPOSITION AND MEDICINAL USE THEREOF” (SHANGHAI HAIYAN PHARMACEUTICAL TECHNOLOGY CO., LTD., priority 2021, published 2024)

Assays:
[1] = biological target: T1, SHP-2 enzyme (Homo sapiens, UniProt Q06124); assay: Phosphatase activity assay (Homogeneous Full Length SHP-2 Assay Kit, DiFMUP substrate); assay type: biochemical; settings: full length SHP-2 activated with 0.5 μM SHP-2 activating Peptide; 1 hour co-incubation; DiFMUP 50 μM, 30 min
T1 construct: Homogeneous Full Length SHP-2 Assay Kit (BPS Bioscience #79330); purchased BPS Bioscience 79330
T1 sequence (Q06124 1-593): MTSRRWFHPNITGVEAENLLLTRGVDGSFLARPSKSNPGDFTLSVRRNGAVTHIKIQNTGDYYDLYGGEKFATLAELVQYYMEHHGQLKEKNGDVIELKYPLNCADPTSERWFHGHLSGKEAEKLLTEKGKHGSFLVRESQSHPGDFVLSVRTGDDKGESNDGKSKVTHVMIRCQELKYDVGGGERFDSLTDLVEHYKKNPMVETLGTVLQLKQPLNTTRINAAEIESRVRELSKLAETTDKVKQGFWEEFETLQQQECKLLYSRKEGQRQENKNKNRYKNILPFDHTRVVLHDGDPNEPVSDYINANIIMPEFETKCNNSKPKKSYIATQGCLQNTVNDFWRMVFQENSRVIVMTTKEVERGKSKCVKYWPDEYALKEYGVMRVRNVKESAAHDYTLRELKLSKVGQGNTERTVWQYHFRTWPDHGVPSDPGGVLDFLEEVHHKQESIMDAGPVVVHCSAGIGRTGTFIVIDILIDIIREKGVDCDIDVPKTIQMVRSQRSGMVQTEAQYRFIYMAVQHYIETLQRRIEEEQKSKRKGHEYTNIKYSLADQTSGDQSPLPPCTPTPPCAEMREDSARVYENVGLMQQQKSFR
Summary of the method: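 Full-length SHP-2 (0.04 ng/μL) was activated with 0.5 μM activating peptide in buffer with 2.5 mM DTT, co-incubated 1 h with compound (0.5 nM to 1 μM) or 0.1% DMSO. Reaction was started with 50 μM DiFMUP, and fluorescence (ex 350/em 460 nm) was read after 30 min to give IC50.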

[2] = tested on: MV-4-11 cell; assay: Cell proliferation assay (Cell Titer-Glo); assay type: cell-based; settings: Homo sapiens, MV4-11, 96 h, inhibition of MV-4-11 cell proliferation; Cell Titer-Glo on day 4
Summary of the method: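 MV-4-11 cells were seeded in IMDM with 10% FBS, cultured 24 h, then given the compounds at a range of concentrations (0.1% DMSO final). On day 4, viability was read by Cell Titer-Glo luminescence after 15 min mixing at 25 °C.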

[3] = tested on: human esophageal squamous carcinoma cell line KYSE-520; assay: KYSE-520 subcutaneous transplantation tumor model; assay type: in vivo; settings: KYSE-520 subcutaneous tumor, female Balb/C nude mice, 10 mg/kg, PO, QD
Protocol: The human esophageal squamous carcinoma cell line KYSE-520 was cultured in RPMI 1640 containing 10% fetal bovine serum placed in a 37° C., 5% CO2 sterile incubator. The cells were passaged 2-3 times per week, digested with 0.25% trypsin-EDTA. After terminating the digestion with the above complete medium, the system was centrifugated at 1000 rpm for 5 min. The supernatant was discarded, and the cells were resuspended and passaged at a ratio of 1:3-1:5. Cells in logarithmic phase were collected, resuspended in serum-free RPMI 1640, counted and adjusted to the appropriate density.
KYSE-520 cells (3×10^6 cells/mouse) were inoculated into the right ventral dorsum of approximately 6- to 8-week-old female Balb/C nude mice. Then the tumors grew to an average volume of about 200 mm^3, the tumors were randomly grouped according to the tumor volume and body weight (n=8-10). Administration was started on the day of grouping and was performed once daily, defining the day of grouping as day 0. Tumor diameters were measured twice a week with vernier calipers, and tumor volume was calculated by the formula TV (mm^3)=0.5×a×b^2, with a and b representing the long and short diameters (in mm) of the tumors, respectively. When the average tumor volume of the control group was about 800 mm^3, the experiment was terminated. The tumor tissues were isolated and weighed to calculate the tumor weight proliferation rate with T/Cweight %=TWT/TWC %, and TWT and TWC represent the tumor weight of the administered group and the vehicle control group, respectively.

[4] = biological target: T2, hERG potassium channel (Homo sapiens, UniProt Q12809); assay: Inhibition of hERG potassium channel current, manual patch clamp in CHO cells stably expressing hERG; assay type: cell-based; settings: whole-cell patch clamp, room temperature
T2 construct: expressed in transfected cells; host or cells: CHO (Chinese hamster ovary) cells stably expressing hERG
Protocol: The electrophysiological manual patch clamp method was used to test the effect of the compounds on the current of hERG potassium channel (human Ether-a-go-go Related Gene potassium channel).
CHO cells stably expressing hERG were cultured in a cell Petri dish having a diameter of 35 mm, placed in an incubator at 37° C. and with 5% CO2, and passaged every 48 hours at a ratio of 1:5. The culture medium formula was: 90% F12 (Invitrogen), 10% fetal bovine serum (Gibco), 100 μg/mL G418 (Invitrogen), and 100 μg/mL Hygromycin B (Invitrogen). On the day of the test, the cell culture medium was sucked away, and the cells were washed with extracellular fluid once. Then 0.25% Trypsin-EDTA (Invitrogen) solution was added, and the cells was digested at room temperature for 3-5 min. The digestive fluid was sucked away, and the cells were resuspended with extracellular fluid, and transferred to the experimental dish for electrophysiological recording.
On the day of test, the compounds were prepared using DMSO into mother solution with concentration of 20 mM, and then serial dilution with DMSO was performed three times, i.e., 10 μL of the solution was added to 20 μL of DMSO, then 10 μL of the serial diluted solution of the compounds in DMSO was added to 4990 μL of extracellular fluid, and 500 times of dilution was performed to obtain the final concentration to be tested.
The hERG potassium channel currents of CHO (Chinese hamster ovary) cells stably expressing hERG potassium channels were recorded using whole-cell patch clamp technique at room temperature. The glass microelectrodes were made from glass electrode blanks (BF150-86-10, Sutter) by pulling through a puller, and the tip resistance was about 2-5 MΩ after filling the electrode with the inner liquid. The glass microelectrodes could be connected to a patch clamp amplifier by inserting them into the amplifier probe. Clamp voltage and data recording were controlled and recorded by a computer using software pClamp 10 with a sampling frequency of 10 kHz and a filtering frequency of 2 kHz. After obtaining a whole-cell recording, the cell was clamped at −80 mV, and the step voltage inducing hERG potassium current (IhERG) was given a depolarizing voltage from −80 mV to +20 mV for 2 s, and repolarized to −50 mV for 1 s, then returning to −80 mV. This voltage stimulus was given every 10 s. After it is determined that the potassium hERG current was stable (for 1 min), the dosing process was initiated. The compounds were administered for at least 1 min at each tested concentration, and at least 2 cells (n≥2) were tested at each concentration.
Data analysis and processing were conducted using softwares pClamp 10, GraphPad Prism 5, and Excel. The degree of inhibitory activity of different compound concentrations on hERG potassium current (peak value of hERG tail current induced at −50 mV) was calculated using the following formula: Inhibition %=[1−(I/Io)]×100%. Among them, Inhibition % represents the percentage inhibition of the compound on hERG potassium current, and I and Io represent the amplitude of hERG potassium current after and before dosing, respectively.
IC50 of the compounds was calculated using software GraphPad Prism 5 by fitting the following equation: Y=Bottom+(Top−Bottom)/(1+10^(Log IC50−X)*HillSlope). Among them, X is the Log value of the detection concentration of test material, Y is the inhibition percentage at the corresponding concentration, and Bottom and Top are the minimum and maximum inhibition percentages, respectively.

T2 sequence (Q12809 whole entry): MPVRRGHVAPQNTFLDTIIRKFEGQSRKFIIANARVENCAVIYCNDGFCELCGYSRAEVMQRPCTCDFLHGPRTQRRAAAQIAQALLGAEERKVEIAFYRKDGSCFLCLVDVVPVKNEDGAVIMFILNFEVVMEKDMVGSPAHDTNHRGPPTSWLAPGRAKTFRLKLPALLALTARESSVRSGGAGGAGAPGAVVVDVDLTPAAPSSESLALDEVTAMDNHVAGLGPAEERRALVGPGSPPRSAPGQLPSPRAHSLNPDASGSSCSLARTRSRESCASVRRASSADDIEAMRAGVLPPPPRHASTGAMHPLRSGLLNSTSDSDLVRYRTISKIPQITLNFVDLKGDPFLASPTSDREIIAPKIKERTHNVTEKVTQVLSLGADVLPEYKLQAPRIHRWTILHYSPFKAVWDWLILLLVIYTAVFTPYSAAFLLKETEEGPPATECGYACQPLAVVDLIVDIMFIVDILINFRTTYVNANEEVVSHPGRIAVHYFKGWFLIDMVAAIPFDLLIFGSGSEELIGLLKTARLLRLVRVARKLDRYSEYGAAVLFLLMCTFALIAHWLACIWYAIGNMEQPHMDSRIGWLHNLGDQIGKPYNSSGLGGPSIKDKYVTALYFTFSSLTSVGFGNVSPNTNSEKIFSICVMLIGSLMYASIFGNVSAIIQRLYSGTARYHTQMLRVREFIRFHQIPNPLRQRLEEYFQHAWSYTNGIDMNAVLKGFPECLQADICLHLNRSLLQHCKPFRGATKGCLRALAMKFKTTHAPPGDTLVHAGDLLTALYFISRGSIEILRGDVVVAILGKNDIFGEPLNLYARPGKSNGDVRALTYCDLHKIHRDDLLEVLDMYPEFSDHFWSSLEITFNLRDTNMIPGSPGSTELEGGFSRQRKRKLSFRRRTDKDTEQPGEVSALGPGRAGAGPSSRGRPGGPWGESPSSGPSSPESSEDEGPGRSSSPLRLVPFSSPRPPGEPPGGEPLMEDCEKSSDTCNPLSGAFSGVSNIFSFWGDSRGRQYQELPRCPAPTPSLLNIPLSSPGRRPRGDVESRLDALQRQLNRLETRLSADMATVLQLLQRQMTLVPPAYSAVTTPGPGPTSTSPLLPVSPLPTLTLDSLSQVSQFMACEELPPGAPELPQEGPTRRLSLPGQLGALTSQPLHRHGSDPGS

IC50 [1] [nM] | IC50 [2] [nM] | Structure (SMILES) | T/Cweight (tumor weight proliferation rate) [3] [%] | IC50 [4] [nM]
4 | 46 | Nc1ccc2c(n1)CCN2C(=O)c1ncc(N2CCC3(CC2)Cc2ccccc2C3N)nc1N (centres unmarked) [Compound 60] | 44.62 | 
3 | < 5 | Nc1nc2c(s1)CN(C(=O)c1ncc(N3CCC4(CC3)Cc3ccccc3[C@H]4N)nc1N)CC2(F)F [Compound 63] | 28.94 | > 30000
 | 25 | [2H]C1([2H])CN(C(=O)c2ncc(N3CCC4(CC3)Cc3ccc(OC)cc3C4N)nc2N)Cc2sc(N)nc21 (centres unmarked) [Compound 70] | 35.04 | > 30000
7 | 7 | Nc1nc2c(s1)CN(C(=O)c1ncc(N3CCC4(CC3)Cc3cc(F)ccc3C4N)nc1N)CC2(F)F (centres unmarked) [Compound 114] | 39.69 | > 30000
